Results taken from patent publication US6906006B1, “N-arly-substituted nitrogen-containing heterocycles, processes and novel intermediates for their preparation, and their use as herbicides and plant growth regulators” (Bayer Aktiengesellschaft, priority 1988, dated 2005).

What was measured:
[1] = system: test plants; test: Pre-emergence test (Use Example A, formula (I) compounds); type: in vivo; settings: damage rated after three weeks, comparison substance 1-(2-chloro-4-trifluoromethylphenyl)-5-methyl-4-nitropyrazole
Protocol: • Solvent: 5 parts by weight of acetone • Emulsifier: 1 part by weight of alkylaryl polyglycol ether
(§1) To produce a suitable preparation of active compound, 1 part by weight of active compound is mixed with the stated amount of solvent, the stated amount of emulsifier is added and the concentrate is diluted with water to the desired concentration.
Seeds of the test plants are sown in normal soil and, after 24 hours, watered with the preparation of active compound. It is expedient to keep constant the amount of water per unit area. The concentration of the active compound in the preparation is of no importance, only the amount of active compound applied per unit area being decisive. After three weeks, the degree of damage to the plants is rated in % damage in comparison to the development of the untreated control. The figures denote: • 0%=no action (like untreated control) • 100% total destruction

[2] = system: test plants; test: Post-emergence test (Use Example B, formula (I) compounds); type: in vivo; settings: sprayed in 2,000 l of water/ha, damage rated after three weeks, comparison substance 1-(2-chloro-4-trifluoromethylphenyl)-5-methyl-4-nitropyrazole
Protocol: • Solvents 5 parts by weight of acetone • Emulsifier: 1 part by weight of alkylaryl polyglycol ether
as §1
Test plants which have a height of 5-15 cm are sprayed with the preparation of the active compound in such a way as to apply the particular amounts of active compound desired per unit area. The concentration of the spray liquor is so chosen that the particular amounts of active compound desired are applied in 2,000 l of water/ha. After three weeks, the degree of damage to the plants is rated in % damage in comparison to the development of the untreated control. The figures denote: • 0%=no action (like untreated control) • 100%=total destruction

Compound | effectiveness and crop plant selectivity compared with the prior art [1] | effectiveness and crop plant selectivity compared with the prior art [2]
CCOCCOc1cc(-n2nc3c(c2C)CCCC3)c(F)cc1C#N [Example 10] | clearly superior to the prior art | clearly superior effectiveness as well as crop plant selectivity
Cc1c2c(nn1-c1cc(SC(C)C)c(C#N)cc1F)CCCC2 [Example 9, 4-(5-methyl-3,4-tetramethylene-1-pyrazolyl)-5-fluoro-2-isopropylthiobenzonitrile] |  | clearly superior effectiveness as well as crop plant selectivity
